For one test, the target named is DGKzeta (Homo sapiens, UniProt Q13574). Briefly: In vitro DGK inhibition assay (ADP-Glo, liposomes), DGKzeta. It is filed as biochemical. On the set-up: hDGKzeta(1-928)-N-His; His (N); made in house; host or cells: Sf21 insect cells (baculovirus). Conditions: 2 nM DGK ζ, 50 μM ATP, 125 uM DLG in liposomes, 1 hour reaction. The protocol: DGK α and ζ kinases use ATP to phosphorylate the substrate 1,2-dilauroyl-sn-glycerol (DLG, incorporated in the liposomes). ATP is converted to ADP as a result of this enzymatic reaction. After the kinase reaction, an ATP-depletion reagent is added to terminate the kinase reaction and deplete any remaining ATP, leaving only ADP. Second, a detection reagent is added to simultaneously convert ADP to ATP and allow the newly synthesized ATP to be converted to light using a coupled luciferase/luciferin reaction.
Purification of both enzymes was performed as previously described by Takahashi et al., PeerJ, 2018 (Takahashi, D.; Sakane, F. Expression and purification of human diacylglycerol kinase alpha from baculovirus-infected insect cells for structural studies. PeerJ 2018, 6, No. e5449).
A concentrated liposome solution was prepared in assay buffer without DTT and BSA: 2 mM of DLG in 21 mM of total liposome (2 mM DLG/8 mM PS/11 mM PC). The reaction mixtures contain the assay buffer with a final DLG concentration of 125 uM ATP concentrations of 25 μM (for DGKA assay) or 50 μM (for DGKZ assay). The reactions were started by addition of DGK a and (kinases at 4 nM and 2 nM final concentrations, respectively. After 1 hour reaction, the amount of ADP formed was detected with the ADP-Glo kinase assay (Promega) according to the manufacturer instructions. Compounds were added in 11-points dose response, starting at […], 1:3 dilutions, with a final DMSO concentration of 2%. The multidrop combi was used as a liquid handler and luminescence was read with 0.5 s by the envision reader (PE).

The subject of the next test is primary human T-cells. Briefly: T-cell proliferation assay (CellTiter-Glo). It is filed as cell-based. Conditions: CD3 condition; for Emax: read-out: Emax proliferation (% activation); for pEC50: proliferation after 5 days, CellTiter-Glo, read-out: Tcell Proliferation CD3 EC50. The protocol:
Expanded primary human T-cells are thawed and cultured in RPMI 1640 (Gibco, #61870-010)+5% human serum (HS, Sigma, #H3667)+1 mM Sodium Pyruvate (Gibco, #11360-039)+50 μM 2-mercaptoethanol (Gibco, #31350-010) and 1× Pen-Strep (Life Technologies, #15140122) medium at density of 2 Mio/ml for 3 hours in 5% CO2, 37° C. and 95% humidity. For coating of plates, PBS++ only or PBS++ with CD3 antibody (concentration depending on donor and determined by CD3 titrations) is added 100 μl/well to Poly-D Lysine coated 96-well plates. Plates are sealed and incubated at room temperature for 3 hours on a table-top rocking platform. After incubation, plates are washed once with PBS−− and filled with 40 μl/well culture medium only. Compounds are then added (see next section) to medium only plates. After 3 hours of culturing the T-cells, cells are filtered through a cell strainer (Miltenyi Biotech, #130-041-407), counted again and concentration is adjusted to 1.25 Mio/ml.
Cells are then seeded 80 μl/well to the 40 µl/well including dispensed compounds according to plate layout. By adding cells, compounds are further diluted 1:3, and resulting in 100k cells/120 µl/well. After 48 hours 40 μl of supernatant is collected carefully from the top while not disturbing the cells. Cells are assessed for proliferation 5 days later by measuring […] using CellTiterGlo (Promega).
Compounds were added in a 5 or 6 pt dose response with the Tecan D300e Digital Dispenser, all conditions 3 times more concentrated than the end-concentration, since cells are added afterwards (80p1 cells to 40p1 prepared medium with treatment). The DR was starting at 20 μM or 10 μM final top concentration and a dilution factor of 3.333. The positive control was the reference compound A1 that was added in a dose response as well, additionally to 3 wells of only 20 μM representing the positive stimulator control. All wells were normalized with DMSO to a final concentration of 0.6% (0.2% end-concentration).
After 5 days, for detection of ATP which is directly proportional to the number of cells present per well, the CellTiter-Glo® 2.0 Reagent is used. After visual control for toxicity or precipitations of the tested compounds, the plates are equilibrated to room temperature for 45 minutes. CellTiter-Glo® 2.0 Reagent is equilibrated to room temperature as well. After equilibration, an equal amount of CellTiter-Glo reagent is added to the cells (80 µl/well) with an electronic multichannel pipette. Plates are placed on a rocking platform for 15 minutes at room temperature. After incubation, the bottom of the plates is sealed with backing tape. Luminescence is measured with PHERAstar FSX (interval time 0.5 sec, gain 3000, focal height 15 mm) and exported as CSV file for analysis in Genedata screener.
Calculations and Data Reporting CD3 and PBS plates were analysed separately in Genedata Screener using Roche Normalization PCT_POS_CTRL with DMSO set as Neutral Control and 20 μM of the reference compound A1 set as Stimulator Control/100%.
For CD3 conditions EC50 and Emax of the fitted sigmoidal curve were reported. If no curve could be fitted, the EC50 was reported as blank field and the Emax was based on individual data points. […] Compounds which activate unstimulated cells (see IL2 measurements) or compounds which negatively affected viability were flagged.

The mark [1] stands for this setting: Homo sapiens, T-cell, 120 h, 5 days, 20 μM reference compound A1 = 100%.

pEC50, pIC50: −log10 of the molar value. Like-named read-outs stand apart in the source and are kept apart here. Some results are limits rather than exact numbers.

DGKzeta, sequence (Q13574 whole entry): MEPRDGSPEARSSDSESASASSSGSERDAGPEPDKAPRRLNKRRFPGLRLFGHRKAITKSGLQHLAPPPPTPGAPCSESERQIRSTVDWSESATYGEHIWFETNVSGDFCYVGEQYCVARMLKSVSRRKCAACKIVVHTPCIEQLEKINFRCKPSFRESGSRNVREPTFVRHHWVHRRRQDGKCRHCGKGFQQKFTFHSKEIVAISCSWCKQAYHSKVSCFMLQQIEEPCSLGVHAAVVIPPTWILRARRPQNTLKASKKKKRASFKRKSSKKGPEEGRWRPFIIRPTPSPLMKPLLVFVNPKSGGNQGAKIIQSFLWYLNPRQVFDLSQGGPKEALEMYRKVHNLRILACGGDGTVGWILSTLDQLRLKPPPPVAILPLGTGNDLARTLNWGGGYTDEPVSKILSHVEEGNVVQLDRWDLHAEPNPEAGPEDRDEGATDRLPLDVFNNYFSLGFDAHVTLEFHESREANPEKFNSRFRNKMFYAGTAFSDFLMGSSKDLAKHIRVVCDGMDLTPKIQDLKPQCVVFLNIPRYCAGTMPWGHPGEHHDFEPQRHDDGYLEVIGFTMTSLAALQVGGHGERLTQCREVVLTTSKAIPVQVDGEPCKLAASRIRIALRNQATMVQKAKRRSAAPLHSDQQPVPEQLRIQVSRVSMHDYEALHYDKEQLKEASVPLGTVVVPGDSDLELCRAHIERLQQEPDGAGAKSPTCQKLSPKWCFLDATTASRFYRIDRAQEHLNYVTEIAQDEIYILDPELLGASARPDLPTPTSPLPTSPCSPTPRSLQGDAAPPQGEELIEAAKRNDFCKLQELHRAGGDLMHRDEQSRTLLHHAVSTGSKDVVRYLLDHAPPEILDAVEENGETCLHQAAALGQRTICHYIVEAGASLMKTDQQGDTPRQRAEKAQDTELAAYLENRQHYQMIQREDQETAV

At DGKzeta, `CC(C)(c1nnc(-c2cc3c(cc2F)S(=O)(=O)C[C@H](N)C(=O)N3Cc2ccc(Oc3ccccc3)cc2)o1)S(C)(=O)=O` [Example 27, (3R)-3-amino-8-fluoro-7-[5-(1-methyl-1-methylsulfonyl-ethyl)-1,3,4-oxadiazol-2-yl]-1,1-dioxo-5-[(4-phenoxyphenyl)methyl]-2,3-dihydro-1λ6,5-benzothiazepin-4-one] showed a negative logarithm of the IC50 (pIC50) of 6.18. In the test on primary human T-cells (setting [1]), the Emax turned out to be 136%. Besides, the pEC50 in the test on primary human T-cells (Homo sapiens, T-cell, 120 h) was 6.06.

With `CN(Cc1ccccc1)c1ccc(CN2C(=O)[C@@H](N)CS(=O)(=O)c3ccc(-c4nnc(C(C)(C)S(C)(=O)=O)o4)cc32)cc1` [Example 15, (3R)-3-amino-5-[[4-[benzyl(methyl)amino]phenyl]methyl]-7-[5-(1-methyl-1-methylsulfonyl-ethyl)-1,3,4-oxadiazol-2-yl]-1,1-dioxo-2,3-dihydro-1λ6,5-benzothiazepin-4-one], on DGKzeta, the pIC50 is 5.10. The Emax with primary human T-cells (setting [1]) came to 85%. Besides, the pEC50 in the test with primary human T-cells (Homo sapiens, T-cell, 120 h) was 5.57.

On to `CC(C)(c1nnc(-c2ccc3c(c2)N(Cc2ccc(-c4ccc(C(F)(F)F)cc4)nc2)C(=O)[C@@H](N)CS3(=O)=O)o1)S(C)(=O)=O` [Example 57, (3R)-3-amino-7-[5-(1-methyl-1-methylsulfonyl-ethyl)-1,3,4-oxadiazol-2-yl]-1,1-dioxo-5-[[6-[4-(trifluoromethyl)phenyl]-3-pyridyl]methyl]-2,3-dihydro-1λ6,5-benzothiazepin-4-one], for which, at DGKzeta, the pIC50 is 5.05. The Emax in the test with primary human T-cells (setting [1]) stood at 65%. For the same compound, in the test on primary human T-cells (Homo sapiens, T-cell, 120 h), the pEC50 was 5.95.

In the case of `CC(C)(c1nc(-c2cc3c(cc2F)[S+]([O-])C[C@H](N)C(=O)N3Cc2ccc(Oc3ccccc3)cc2)no1)S(C)(=O)=O` (stereo partly drawn) [Example 51, (3R)-3-amino-8-fluoro-7-[5-(1-methyl-1-methylsulfonyl-ethyl)-1,2,4-oxadiazol-3-yl]-1-oxo-5-[(4-phenoxyphenyl)methyl]-2,3-dihydro-1λ4,5-benzothiazepin-4-one], at DGKzeta, the negative logarithm of the IC50 (pIC50) was 6.43. Also, the “Emax proliferation (% activation)” value in the test with primary human T-cells (5 days, 20 μM reference compound A1 = 100%) stood at 67%. The pEC50 in the test with primary human T-cells is less than 5.00.

For the compound `CC(C)(c1nnc(-c2ccc3c(c2)N(Cc2ccc(Oc4cccc(Br)c4)cc2)C(=O)[C@@H](N)CS3(=O)=O)o1)S(C)(=O)=O` [Example 60, (3R)-3-amino-5-[[4-(3-bromophenoxy)phenyl]methyl]-7-[5-(1-methyl-1-methylsulfonyl-ethyl)-1,3,4-oxadiazol-2-yl]-1,1-dioxo-2,3-dihydro-1λ6,5-benzothiazepin-4-one], the pIC50 against DGKzeta was 6.22. Besides, the Emax in the test on primary human T-cells (setting [1]) was determined as 119%. Moreover, in the test with primary human T-cells (Homo sapiens, T-cell, 120 h), the pEC50 is 6.18.

Take `CC(C)(c1nc(-c2cc3c(cc2F)S(=O)(=O)C[C@H](N)C(=O)N3Cc2ccc(OCc3nc(C(F)(F)F)no3)cc2)no1)S(C)(=O)=O` [Example 59, (3R)-3-amino-8-fluoro-7-[5-(1-methyl-1-methylsulfonyl-ethyl)-1,2,4-oxadiazol-3-yl]-1,1-dioxo-5-[[4-[[3-(trifluoromethyl)-1,2,4-oxadiazol-5-yl]methoxy]phenyl]methyl]-2,3-dihydro-1λ6,5-benzothiazepin-4-one]: the pIC50 at DGKzeta is 6.51. The Emax in the test on primary human T-cells (setting [1]) worked out at 185%. The pEC50 with primary human T-cells (Homo sapiens, T-cell, 120 h) was 5.95.

With `Cc1cccc(Oc2ccc(CN3C(=O)[C@@H](N)CS(=O)(=O)c4ccc(-c5nnc(C(C)(C)S(C)(=O)=O)o5)cc43)cc2)c1` [Example 31], on DGKzeta, the negative logarithm of the IC50 (pIC50) was 6.34. In addition, the Emax with primary human T-cells (setting [1]) is 106%. In addition, in the test with primary human T-cells (Homo sapiens, T-cell, 120 h), the pEC50 was 6.22.

With `CC(C)(c1nnc(-c2ccc3c(c2)N(Cc2ccc(-c4ccc(C(F)(F)F)cc4)cc2)C(=O)[C@@H](N)CS3(=O)=O)o1)S(=O)(=O)N1CCCC1` [Example 67, (3R)-3-amino-7-[5-(1-methyl-1-pyrrolidin-1-ylsulfonyl-ethyl)-1,3,4-oxadiazol-2-yl]-1,1-dioxo-5-[[4-[4-(trifluoromethyl)phenyl]phenyl]methyl]-2,3-dihydro-1λ6,5-benzothiazepin-4-one], on DGKzeta, the pIC50 was 4.30. In addition, the Emax in the test with primary human T-cells (setting [1]) was 142%. For the same compound, the pEC50 in the test with primary human T-cells (Homo sapiens, T-cell, 120 h) is 5.26.

With `COCC(C)(C)Oc1ccc(CN2C(=O)[C@@H](N)CS(=O)(=O)c3cc(F)c(-c4noc(C(C)(C)S(C)(=O)=O)n4)cc32)cc1` [Example 62, (3R)-3-amino-8-fluoro-5-[[4-(2-methoxy-1,1-dimethyl-ethoxy)phenyl]methyl]-7-[5-(1-methyl-1-methylsulfonyl-ethyl)-1,2,4-oxadiazol-3-yl]-1,1-dioxo-2,3-dihydro-benzothiazepin-4-one], the negative-log IC50 (pIC50) against DGKzeta is 6.57. Further, the Emax with primary human T-cells (setting [1]) came to 188%. Moreover, the pEC50 in the test with primary human T-cells (Homo sapiens, T-cell, 120 h) was 5.86.

`CS(=O)(=O)Cn1nnnc1-c1cc2c(cc1F)S(=O)(=O)C[C@H](N)C(=O)N2Cc1ccc(Oc2ccccc2)cc1` [Example 55, (3R)-3-amino-8-fluoro-7-[1-(methylsulfonyl-methyl)tetrazol-5-yl]-1,1-dioxo-5-[(4-phenoxyphenyl)methyl]-2,3-dihydro-1λ6,5-benzothiazepin-4-one] had a pIC50 against DGKzeta of 5.18. Moreover, the Emax with primary human T-cells (setting [1]) worked out at 310%. The pEC50 in the test with primary human T-cells (Homo sapiens, T-cell, 120 h) is 5.94.

Regarding `CC(C)(c1nnc(-c2ccc3c(c2)N(Cc2ccc(-c4ccc(C(F)(F)F)cn4)cc2)C(=O)[C@@H](N)CS3(=O)=O)o1)S(C)(=O)=O` [Example 10], on DGKzeta, the pIC50 was 5.76. The Emax with primary human T-cells (setting [1]) turned out to be 145%. The pEC50 with primary human T-cells (Homo sapiens, T-cell, 120 h) is 5.94.

Regarding `CC(C)(c1nnc(-c2ccc3c(c2)N(Cc2ccc(-c4ccc(C#N)cc4)cc2)C(=O)[C@@H](N)CS3(=O)=O)o1)S(C)(=O)=O` [Example 20, 4-[4-[[(3R)-3-amino-7-[5-(1-methyl-1-methylsulfonyl-ethyl)-1,3,4-oxadiazol-2-yl]-1,1,4-trioxo-2,3-dihydro-1λ6,5-benzothiazepin-5-yl]methyl]phenyl]benzonitrile], the pIC50 against DGKzeta was 5.84. Moreover, the Emax with primary human T-cells (setting [1]) is 85%. In the test on primary human T-cells (Homo sapiens, T-cell, 120 h), the pEC50 was 5.40.

`CC(C)(c1nc(-c2cc3c(cc2F)S(=O)(=O)C[C@H](N)C(=O)N3Cc2ccc(C3CCOCC3)cc2)no1)S(C)(=O)=O` [Example 53, (3R)-3-amino-8-fluoro-7-[5-(1-methyl-1-methylsulfonyl-ethyl)-1,2,4-oxadiazol-3-yl]-1,1-dioxo-5-[(4-tetrahydropyran-4-ylphenyl)methyl]-2,3-dihydro-1λ6,5-benzothiazepin-4-one]: in the test on primary human T-cells (setting [1]), the Emax stood at 167%. Further, in the test on primary human T-cells (Homo sapiens, T-cell, 120 h), the pEC50 is 5.50.

Values taken from US20260035364A1, “BICYCLIC TETRAHYDROTHIAZEPINE DERIVATIVES” (Hoffmann-La Roche Inc., priority 2022, published 2026).
